Results: patent US10172848B2, “Gap junction-enhancing agents for treatment of necrotizing enterocolitis and inflammatory bowel disease” (University of Pittsburgh—of the Commonwealth System of …, priority 2010, dated 2019)
Square brackets hold non-standard residues; d marks the D form. Peptide text beside a SMILES is read from it. dHyp = O=C(O)[C@H]1C[C@H](O)CN1

What was measured:
IEC-6 enterocytes = assay: enterocyte gap junction communication by confocal based dye transfer; type: cell-based; conditions: IEC-6 enterocytes treated with various concentrations of PMA for one hour; untreated cells = 100% dye transfer; FIG. 10A
Procedure: (§1) FIG. 10A-B. (A) IEC-6 enterocytes were treated with the concentrations of phorbol myristate acetate (“PMA”) indicated for one hour and then evaluated for the extent of enterocyte gap junction communication by confocal based dye transfer. The untreated cells represent the 100% dye transfer. *p<0.05 versus untreated cells. (B) IEC-6 cells were treated with the concentration of PMA indicated and assessed for their ability to migrate into a scraped wound over 20 hours. *p<0.05 vs. untreated cells. Representative of two separate experiments.
(§2) IEC-6 enterocytes were treated with various concentrations of phorbol myristate acetate (“PMA”) for one hour and then evaluated for the extent of enterocyte gap junction communication by confocal based dye transfer. […] Further, IEC-6 cells were treated with the concentration of PMA indicated and assessed for their ability to migrate into a scraped wound over 20 hours.

IEC-6 cells = assay: migration into a scraped wound; type: cell-based; conditions: migration into a scraped wound over 20 hours, increasing PMA concentration, FIG. 10B
Procedure: as §1, §2

[1] = qualitative statement, no test described; cited from earlier work

SMILES | extent of gap junction communication (dye transfer) (IEC-6 enterocytes) | speed (rate) of enterocyte migration (IEC-6 cells) | half-life [1] | stability [1]
CCCCCCCCCCCCCC(=O)O[C@@H]1[C@@H](C)[C@@]2(O)[C@@H](C=C(CO)C[C@]3(O)C(=O)C(C)=C[C@@H]23)[C@@H]2C(C)(C)[C@]12OC(C)=O [PMA, phorbol myristate acetate] | as concentrations of PMA increased, so did the extent of gap junction communication | the speed (rate) of enterocyte migration also increased | – | –
NCC(=O)N1C[C@H](NC(=O)c2ccccc2)C[C@H]1C(=O)O [GAP-134, (2S,4R)-1-(2-aminoacetyl)-4-benzamido-pyrrolidine-2-carboxylic acid] | – | – | shorter half-life than ZP123 | –
CC(=O)N[C@H](Cc1ccc(O)cc1)C(=O)N1CCC[C@@H]1C(=O)N1C[C@@H](O)C[C@@H]1C(=O)NCC(=O)N[C@H](C)C(=O)NCC(N)=O [Rotigaptide, (2R, 4S)-1-[(2R)-1-[(2R)-2-acetamido-3-(4-hydroxyphenyl)propanoyl]pyrrolidine-2-carbonyl]-N-[2-[[(2R)-1-[(2-amino-2-oxoethyl)amino]-1-oxopropan-2-yl]amino]-2-oxoethyl]-4-hydroxypyrrolidine-2-carboxamide] (Ac-[dY][dP][dHyp]G[dA]G-NH2) | – | – | long half-life | stable
